# Tested on: Human Jurkat T-cells (clone N)
# Assay: Jurkat T-cell activation (anti-TCR, CD69 upregulation)
# Assay type: cell-based
# Settings: not given
# Summary of the method: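 Jurkat cells in RPMI + 5% FBS preincubated with compound 1 h at 37 °C, then stimulated with anti-TCR C305 at 500 ng/ml for 20 h. CD69 surface expression stained with anti-CD69-APC and read by flow cytometry; IC50 versus solvent-only control.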
row,SMILES,IC50 [µM]
1,N#CCOc1ccc(Nc2nc(Nc3ccc4c(c3)OCCO4)ncc2F)cc1 [Compound R945172],3.13
2,CNC(=O)COc1ccc(Nc2nc(Nc3ccc4c(c3)OCCO4)ncc2F)cc1 [Compound R945173],2.88
3,CON=C(N)COc1ccc(Nc2nc(Nc3ccc4c(c3)OCCO4)ncc2F)cc1 [Compound R945175],3.79
4,O=C1CN=C2COc3ccc(Nc4nc(Nc5cccc(O)c5)ncc4F)cc3N12 [Compound R945236],2.92
5,CNC(=O)COc1cccc(Nc2ncc(F)c(Nc3cnc4c(c3)OCC(=O)N4)n2)c1 [Compound R945242],1.71
6,CNC(=O)COc1cccc(Nc2ncc(F)c(Nc3cnc4c(c3)OCCN4)n2)c1 [Compound R945263],4.47
7,CS(=O)(=O)Nc1ccc(Nc2ncc(F)c(Nc3ccc(NS(C)(=O)=O)cc3)n2)cc1 [Compound R950083],> 10
8,CS(=O)(=O)Nc1cccc(Nc2ncc(F)c(Nc3cccc(NS(C)(=O)=O)c3)n2)c1 [Compound R950100],5.67
9,Nc1ccc(Nc2ncc(F)c(Nc3ccc(N)cc3)n2)cc1 [Compound R950121],6.27
10,Nc1ccc(Nc2ncc(F)c(Nc3ccc(N)cc3)n2)cc1 [Compound R950122],13.9
11,Nc1cccc(Nc2nc(Nc3cccc(Nc4ncc(F)c(Nc5cccc(N)c5)n4)c3)ncc2F)c1 [Compound R950137],5.9
12,O=[N+]([O-])c1ccc(NCCO)c(Nc2ncc(F)c(Nc3cc([N+](=O)[O-])ccc3NCCO)n2)c1 [Compound R950150],> 10
13,O=[N+]([O-])c1ccc(NCCO)c(Nc2ccnc(Nc3cc([N+](=O)[O-])ccc3NCCO)n2)c1 [Compound R950156],> 10
14,O=C(NCCO)c1cc2cc(Nc3ncc(F)c(Nc4ccc5oc(C(=O)NCCO)cc5c4)n3)ccc2o1 [Compound R950167],> 10
15,NCCNC(=O)c1cc2cc(Nc3ncc(F)c(Nc4ccc5oc(C(=O)NCCN)cc5c4)n3)ccc2o1 [Compound R950168],10.7
16,O=C(NCCNCc1ccccc1)c1cc2cc(Nc3ncc(F)c(Nc4ccc5oc(C(=O)NCCNCc6ccccc6)cc5c4)n3)ccc2o1 [Compound R950169],> 10
17,CNCCNC(=O)c1cc2cc(Nc3ncc(F)c(Nc4ccc5oc(C(=O)NCCNC)cc5c4)n3)ccc2o1 [Compound R950170],> 10
18,CC(CO)Nc1cccc(Nc2ncc(F)c(Nc3cccc(NC(C)CO)c3)n2)c1 (stereo not shown) [Compound R950171],4.36

row,SMILES,IC50 [µM]
1,O=C(c1cc2cc(Nc3ncc(F)c(Nc4ccc5oc(C(=O)N6CCOCC6)cc5c4)n3)ccc2o1)N1CCOCC1 [Compound R950172],23.1
2,O=C(NCCN1CCOCC1)c1cc2cc(Nc3ncc(F)c(Nc4ccc5oc(C(=O)NCCN6CCOCC6)cc5c4)n3)ccc2o1 [Compound R950173],9.18
3,Fc1cnc(Nc2cccc(NCCOCc3ccccc3)c2)nc1Nc1cccc(NCCOCc2ccccc2)c1 [Compound R950174],> 10
4,Nc1cccc(Nc2ncc(F)c(Nc3cccc(NCCOCc4ccccc4)c3)n2)c1 [Compound R950175],> 10
5,Nc1cccc(Nc2nc(Nc3cccc(NCCOCc4ccccc4)c3)ncc2F)c1 [Compound R950176],> 10
6,OCCNc1cccc(Nc2ncc(F)c(Nc3cccc(NCCO)c3)n2)c1 [Compound R950181],2.69
7,CCOC(=O)COc1cccc(Nc2ncc(F)c(Nc3cc(Cl)c(O)c(Cl)c3)n2)c1 [Compound R950185],> 10
8,O=C(COc1cccc(Nc2ncc(F)c(Nc3cc(Cl)c(O)c(Cl)c3)n2)c1)N1CCOCC1 [Compound R950187],22.3
9,O=C(COc1cccc(Nc2ncc(F)c(Nc3cc(Cl)c(O)c(Cl)c3)n2)c1)N1CCNCC1 [Compound R950188],17.9
10,CNc1ncc(F)c(Nc2ccc3c(c2)OCCO3)n1 [Compound R950189],22
11,CNC(=O)CNc1cccc(Nc2ncc(F)c(Nc3ccc4c(c3)OCCO4)n2)c1 [Compound R950191],2.59
12,NC(=O)CNc1cccc(Nc2ncc(F)c(Nc3ccc4c(c3)OCCO4)n2)c1 [Compound R950192],1.73
13,O=C(CNc1cccc(Nc2ncc(F)c(Nc3ccc4c(c3)OCCO4)n2)c1)N1CCOCC1 [Compound R950193],2.83
14,CN1CCN(C(=O)CNc2cccc(Nc3ncc(F)c(Nc4ccc5c(c4)OCCO5)n3)c2)CC1 [Compound R950194],5.13
15,O=C(CNc1cccc(Nc2ncc(F)c(Nc3ccc4c(c3)OCCO4)n2)c1)NCCO [Compound R950195],1.8
16,CNCCNC(=O)CNc1cccc(Nc2ncc(F)c(Nc3ccc4c(c3)OCCO4)n2)c1 [Compound R950196],2.08
17,O=C(CNc1cccc(Nc2ncc(F)c(Nc3ccc4c(c3)OCCO4)n2)c1)N1CCNCC1 [Compound R950197],2.58

# Same assay, conditions: Homo sapiens
row,SMILES,IC50 [µM]
1,Nc1cc(Nc2ncc(F)c(Nc3ccc([N+](=O)[O-])c(N)c3)n2)ccc1[N+](=O)[O-] [Compound R950135],> 10
2,Cc1ccc(Nc2ncc(F)c(Nc3ccc(C)c([N+](=O)[O-])c3)n2)cc1[N+](=O)[O-] [Compound R950144],> 10
3,Cc1ccc([N+](=O)[O-])cc1Nc1ncc(F)c(Nc2cc([N+](=O)[O-])ccc2C)n1 [Compound R950146],> 10
4,O=[N+]([O-])c1ccc(F)c(Nc2ncc(F)c(Nc3cc([N+](=O)[O-])ccc3F)n2)c1 [Compound R950147],14.8
5,O=[N+]([O-])c1cc(Nc2ncc(F)c(Nc3ccc(F)c([N+](=O)[O-])c3)n2)ccc1F [Compound R950148],> 10
6,O=[N+]([O-])c1cc(Nc2ncc(F)c(Nc3ccc(Cl)c([N+](=O)[O-])c3)n2)ccc1Cl [Compound R950149],> 10
7,COc1ccc([N+](=O)[O-])cc1Nc1ncc(F)c(Nc2cc([N+](=O)[O-])ccc2OC)n1 [Compound R950151],14.2
8,O=[N+]([O-])c1cc(Nc2ccnc(Nc3ccc(F)c([N+](=O)[O-])c3)n2)ccc1F [Compound R950152],2.65
9,Cc1ccc(Nc2ccnc(Nc3ccc(C)c([N+](=O)[O-])c3)n2)cc1[N+](=O)[O-] [Compound R950153],> 10
10,O=[N+]([O-])c1cc(Nc2ccnc(Nc3ccc(Cl)c([N+](=O)[O-])c3)n2)ccc1Cl [Compound R950154],> 10
11,O=[N+]([O-])c1ccc(O)c(Nc2ccnc(Nc3cc([N+](=O)[O-])ccc3O)n2)c1 [Compound R950155],> 10
12,O=[N+]([O-])c1cccc(Nc2ncc(F)c(Nc3cccc([N+](=O)[O-])c3)n2)c1 [Compound R950160],> 10

# Same assay, conditions: Homo sapiens, Jurkat
row,SMILES,IC50 [µM]
1,O=C1CCNC2=COc3ccc(Nc4nc(Nc5cccc(O)c5)ncc4F)cc3N12 [Compound R945237],0.838
2,Fc1cnc(Nc2ccc(OCc3ccccc3)c(C(F)(F)F)c2)nc1Nc1ccc(OCc2ccccc2)c(C(F)(F)F)c1 [Compound R950090],> 10
3,N#Cc1cc(Nc2ncc(F)c(Nc3ccc(O)c(C#N)c3)n2)ccc1O [Compound R950092],> 10
4,Oc1ccc(Nc2ncc(F)c(Nc3ccc(O)c(C(F)(F)F)c3)n2)cc1C(F)(F)F [Compound R950093],11.3
5,Nc1cccc(Nc2ncc(F)c(Nc3cccc(N)c3)n2)c1 [Compound R950107],5.42
6,CC(C)(C)OC(=O)Nc1cccc(Nc2ncc(F)c(Nc3cccc(NC(=O)OC(C)(C)C)c3)n2)c1 [Compound R950108],> 10
7,Nc1cccc(Nc2ccnc(Nc3cccc(N)c3)n2)c1 [Compound R950109],12.8
8,CC(C)(C)OC(=O)Nc1ccc(Nc2ncc(F)c(Nc3ccc(NC(=O)OC(C)(C)C)cc3)n2)cc1 [Compound R950120],12.1
9,Nc1cc(Nc2ccnc(Nc3ccc(Nc4ccccc4)c(N)c3)n2)ccc1Nc1ccccc1 [Compound R950123],> 10
10,Cc1ccc(Nc2ncc(F)c(Nc3ccc(C)c(N)c3)n2)cc1N [Compound R950129],6.88
11,Cc1ccc(Nc2ccnc(Nc3ccc(C)c(N)c3)n2)cc1N [Compound R950130],> 10
12,Nc1c(F)ccc(Nc2ccnc(Nc3ccc(F)c(N)c3F)n2)c1F [Compound R950131],> 10
13,COC(=O)c1cc(N)cc(Nc2ccnc(Nc3cc(N)cc(C(=O)OC)c3)n2)c1 [Compound R950132],4.64
14,Nc1cc(Cl)cc(Nc2ccnc(Nc3cc(N)cc(Cl)c3)n2)c1 [Compound R950133],4.7
15,COC(=O)c1cc(N)cc(Nc2ncc(F)c(Nc3cc(N)cc(C(=O)OC)c3)n2)c1 [Compound R950134],6.46
16,Nc1c(F)ccc(Nc2ncc(F)c(Nc3ccc(F)c(N)c3F)n2)c1F [Compound R950138],> 10
17,CCOc1ccc(Nc2ncc(F)c(Nc3ccc(OCC)c(N)c3)n2)cc1N [Compound R950139],5.45
18,Nc1cc(Nc2ncc(F)c(Nc3cc(N)cc(C(F)(F)F)c3)n2)cc(C(F)(F)F)c1 [Compound R950140],22.4
19,CCOc1ccc(Nc2ccnc(Nc3ccc(OCC)c(N)c3)n2)cc1N [Compound R950142],29.1
20,Nc1cc(Nc2ccnc(Nc3cc(N)cc(C(F)(F)F)c3)n2)cc(C(F)(F)F)c1 [Compound R950143],4.57
21,Cc1ccc(N)cc1Nc1ncc(F)c(Nc2cc(N)ccc2C)n1 [Compound R950157],> 10
22,Nc1ccc(F)c(Nc2ncc(F)c(Nc3cc(N)ccc3F)n2)c1 [Compound R950158],21.4
23,Nc1cc(Nc2ncc(F)c(Nc3ccc(F)c(N)c3)n2)ccc1F [Compound R950159],8.45
24,COC(=O)c1cc2cc(Nc3ncc(F)c(Nc4cccc(N)c4)n3)ccc2o1 [Compound R950162],8.92
25,Nc1cccc(Nc2nc(Nc3cccc(O)c3)ncc2F)c1 [Compound R950163],24.1
26,CC(C)Oc1cccc(Nc2ncc(F)c(Nc3cccc(N)c3)n2)c1 [Compound R950164],18.2
27,CC(C)Oc1ccc(Nc2ncc(F)c(Nc3cccc(N)c3)n2)cc1 [Compound R950165],7.59
28,CC(C)Nc1cccc(Nc2ncc(F)c(Nc3cccc(NC(C)C)c3)n2)c1 [Compound R950166],> 10
29,CN(C)c1cccc(Nc2ncc(F)c(Nc3cccc(N(C)C)c3)n2)c1 [Compound R950182],> 10
